Experimental data reported in ChEMBL document CHEMBL1129900, “Synthesis and biological evaluation of 1-hydroxy-25(R and S)-25,26-Epoxy-23-yne vitamin D3 and of 1,25(R and S),26-Trihydroxy-23-yne vitamin D3” (1997).

How the values were obtained:
[1] = biological target: T1, Vitamin D3 receptor (Homo sapiens) (UniProt P11473); assay: Relative affinity compared to Calcitriol in displacement of [3H]1H]1-alpha,25(OH)2D3 from vitamin D3 receptor in HL-60 cells; format: cell-based
T1 sequence (whole entry): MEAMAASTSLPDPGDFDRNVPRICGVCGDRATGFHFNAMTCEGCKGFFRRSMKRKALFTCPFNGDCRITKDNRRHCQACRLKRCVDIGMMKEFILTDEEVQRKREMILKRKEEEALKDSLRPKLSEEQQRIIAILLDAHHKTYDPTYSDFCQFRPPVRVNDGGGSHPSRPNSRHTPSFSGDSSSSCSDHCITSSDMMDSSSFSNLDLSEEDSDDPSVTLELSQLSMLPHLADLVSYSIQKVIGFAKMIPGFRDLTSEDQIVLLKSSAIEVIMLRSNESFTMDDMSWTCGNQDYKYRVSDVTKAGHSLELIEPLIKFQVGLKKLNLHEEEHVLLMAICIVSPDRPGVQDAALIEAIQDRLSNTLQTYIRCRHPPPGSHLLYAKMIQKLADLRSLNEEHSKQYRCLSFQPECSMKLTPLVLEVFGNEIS

[2] = biological target: T2, Vitamin D3 receptor (Sus scrofa) (UniProt A3RGC1); assay: Affinity for pig intestinal mucosa Vitamin D3 receptor (VDR); format: tissue-based
T2 sequence (whole entry): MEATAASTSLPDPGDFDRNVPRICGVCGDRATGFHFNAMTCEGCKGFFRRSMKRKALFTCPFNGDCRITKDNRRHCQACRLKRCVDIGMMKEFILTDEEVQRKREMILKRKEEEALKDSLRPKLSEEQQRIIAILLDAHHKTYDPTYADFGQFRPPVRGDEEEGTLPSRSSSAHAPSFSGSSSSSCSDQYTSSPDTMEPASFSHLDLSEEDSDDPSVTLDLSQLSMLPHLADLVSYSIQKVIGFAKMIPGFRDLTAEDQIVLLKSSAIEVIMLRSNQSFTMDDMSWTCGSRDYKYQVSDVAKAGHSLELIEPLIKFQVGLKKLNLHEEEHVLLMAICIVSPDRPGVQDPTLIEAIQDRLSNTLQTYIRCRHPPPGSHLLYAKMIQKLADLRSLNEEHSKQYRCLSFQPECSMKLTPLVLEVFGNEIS

[3] = biological target: T1, Vitamin D3 receptor (Homo sapiens); assay: Relative affinity compared to Calcitriol in displacement of [3H]1H]1-alpha,25(OH)2D3 from Vitamin D3 receptor in Keratinocyte cell lines
[4] = biological target: T1, Vitamin D3 receptor (Homo sapiens); assay: Relative affinity compared to Calcitriol in displacement of [3H]1H]1-alpha,25(OH)2D3 from vitamin D3 receptor in […] cells; format: cell-based
Mus musculus = assay: In vivo calcemic effect was tested in vitamin D replete normal […] mice by measuring calcium levels in serum; format: functional
[5] = biological target: T1, Vitamin D3 receptor (Homo sapiens); assay: Relative affinity compared to Calcitriol in displacement of [3H]1H]1-alpha,25(OH)2D3 from vitamin receptor (VDR) in keratinocyte cells; format: functional, cell-based
[6] = biological target: T2, Vitamin D3 receptor (Sus scrofa); assay: Affinity for pig intestinal mucosa vitamin D receptor (VDR)
[7] = biological target: T1, Vitamin D3 receptor (Homo sapiens); assay: Relative affinity compared to Calcitriol in displacement of [3H]1H]1-alpha,25(OH)2D3 from vitamin D receptor (VDR) in […] cells; format: cell-based
[8] = biological target: T1, Vitamin D3 receptor (Homo sapiens); assay: Relative affinity compared to Calcitriol in displacement of [3H]1H]1-alpha,25(OH)2D3 from vitamin D receptor (VDR) in HL-60 cells; format: functional, cell-based

| Structure (SMILES) | Activity [1] [%] | Activity [2] | Activity [3] [%] | Activity [4] [%] | Activity (Mus musculus) | Activity [5] [%] | Activity [6] | Activity [7] [%] | Activity [8] [%] |
| --- | --- | --- | --- | --- | --- | --- | --- | --- | --- |
| C=C1/C(=C/C=C2/CCC[C@]3(C)[C@@H]([C@H](C)CC#C[C@](C)(O)CO)CC[C@@H]23)C[C@@H](O)C[C@@H]1O | 150 | 70 | 250 | 150 | 0.7 |  |  |  |  |
| C=C1/C(=C/C=C2/CCC[C@]3(C)[C@@H]([C@H](C)CC#CC4(C)CO4)CC[C@@H]23)C[C@@H](O)C[C@@H]1O (stereo not given in full) | 150 | 70 | 250 | 150 | 0.25 |  |  |  |  |
| C=C1/C(=C/C=C2/CCC[C@]3(C)[C@@H]([C@H](C)CC#C[C@]4(C)CO4)CC[C@@H]23)C[C@@H](O)C[C@@H]1O |  |  |  |  | 0.2 | 250 | 75 | 150 | 150 |
| C=C1/C(=C/C=C2/CCC[C@]3(C)[C@@H]([C@H](C)CC#C[C@@]4(C)CO4)CC[C@@H]23)C[C@@H](O)C[C@@H]1O | 150 | 60 | 250 | 150 | 0.3 |  |  |  |  |
| C=C1/C(=C/C=C2/CCC[C@]3(C)[C@@H]([C@H](C)CC#C[C@@](C)(O)CO)CC[C@@H]23)C[C@@H](O)C[C@@H]1O | 150 | 80 | 250 | 150 | 0.1 |  |  |  |  |
